Entries after “also recorded” stand apart in the source; their conditions may differ. Each block holds one molecule with its values, some of them ahead of it. Where a SMILES comes first, the peptide text is derived from it. [ ]: non-standard residue; d: D form. Ahx = NCCCCCC(=O)O
Columns and labels:
hY2R = target: T1, hY2R (Homo sapiens, UniProt P49146); assay: cAMP assay, HEK293 co-transfected hY2R/hY1R, Y2R addressed; type: cell-based
T1 construct: expressed in transfected cells; host or cells: HEK293 (transient transfection, pEYFP-N1 vector)
T1 sequence (P49146 1-381): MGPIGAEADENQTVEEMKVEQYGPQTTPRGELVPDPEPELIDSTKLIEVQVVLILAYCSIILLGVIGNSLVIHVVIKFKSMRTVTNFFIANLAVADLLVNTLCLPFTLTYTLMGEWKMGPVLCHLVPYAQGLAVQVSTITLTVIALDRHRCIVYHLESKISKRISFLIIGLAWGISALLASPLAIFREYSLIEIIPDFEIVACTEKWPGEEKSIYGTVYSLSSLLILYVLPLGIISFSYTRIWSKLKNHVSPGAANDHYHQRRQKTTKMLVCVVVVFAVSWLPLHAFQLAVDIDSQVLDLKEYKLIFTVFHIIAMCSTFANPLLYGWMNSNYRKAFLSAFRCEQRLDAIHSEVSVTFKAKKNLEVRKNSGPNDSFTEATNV
Method: (§1) HEK293 cells were grown in 25 cm^2 culture flask up to 70–80% confluence in a humidified atmosphere at 37 °C and 5% CO2. Co-transfection of 3000 ng pGL4.29[luc2P/CRE/Hygro] (Promega) plasmid and 3000 ng plasmid encoding for the respective receptor was performed using Metafectene® Pro (Biontex Laboratories GmbH) according to the manufacturer’s protocol. One-day post-transfection cells were seeded into white poly-D-lysine covert 96-well plates (Greiner Bio-one) and incubated overnight at 37 °C. For pertussis toxin experiments, medium was supplied with certain concentration (100 ng/ml, 250 ng/ml, 500 ng/ml) of pertussis toxin (Sigma). Two-day post-transfection cAMP experiments were performed with the help of ONE-Glo substrate (Promega), allowing luminescence measurement with the Tecan Infinite M200. […] For recycling, cells were incubated for 60 min with DMEM supplemented with 100 μg/ml CHX (Merck/Calbiochem®). […] As a positive control only 5 μM forskolin were added to the wells. After incubation, medium was exchanged by 30 μl fresh DMEM (RT). 30 μl ONE-Glo substrate was added and after 5 min of incubation the cAMP level was measured by detecting the luminescence. For co-transfection experiments the transfection of two receptors simultaneously and pGL4.29[luc2P/CRE/Hygro] plasmid were performed in a ratio 1:1:1, keeping the total amount of 6000 ng. […] The second stimulation was performed in a peptide concentration range, addressing the respective receptor that was missed in the first round.

[1] = target: T2, neuropeptide Y2R (endogenous in SH-SY5Y cells) (Homo sapiens, UniProt P49146); assay: Ca^2+-flux assay, SH-SY5Y cells transfected with chimeric Gqi; type: cell-based
T2 construct: SH-SY5Y cells that endogenously expressing Y2R; endogenous in cells; host or cells: SH-SY5Y (transiently transfected with chimeric Gqi protein only)
T2 sequence (P49146 1-381): T1 sequence (P49146 1-381)
Method: (§2) HEK293 cells were grown in 25 cm^2 culture flask up to 70–80% confluence in a humidified atmosphere at 37 °C and 5% CO2. Co-transfection of 800 ng plasmid encoding the GαΔ6qi4myr protein and 3200 ng plasmid encoding for the Y2R fused C-terminally to eYFP was performed by using Metafectene® Pro (Biontex Laboratories GmbH) according to manufacturer’s protocol. One-day post transfection, cells were re-seeded (100.000 cells/well) into a black poly-D-lysine covert 96-well plates (Greiner Bio-one) and incubated overnight at 37 °C. Two-days post transfection Ca^2+ experiments were performed with the help of the FLIPR® Calcium Assay Kit (Molecular Devices). […] For recycling, cells were incubated for 60 min with assay buffer (20 mM HEPES, 2.5 mM Probenecid in HBSS, pH 7.5) supplemented with 100 μg/ml CHX (Merck/Calbiochem®) and 1 μM Fluor-2-AM staining dye. […] For the GαΔ6qi4myr overexpression experiments, the transfection ratio between receptor DNA and G protein DNA was varied from the initial concentration 4:1, using a total DNA amount of 4000 ng. By keeping the G protein amount equal to 800 ng, the resulting discrepancy was filled with pcDNA3.

adenylyl cyclase = assay: Impact of Ca^2+ and PKC on cellular cAMP level, HEK293-hY2R-eYFP; type: cell-based; details: 10 µM PKC inhibitor 30 min prior to stimulation with peptide; n≥2
[2] = target: T3, human neuropeptide Y2 receptor (hY2R) (Homo sapiens, UniProt P49146); parameters: expressed in transfected cells; host or cells: HEK293 (transient transfection, pEYFP-N1 vector); details: ref [29]; cited from earlier work
T3 sequence (P49146 1-381): T1 sequence (P49146 1-381)
Excerpt: Contrary to the obviously low arrestin binding affinity, the unoccupied receptor apparently exists in a conformation that strongly favors G protein coupling. Kaiser et al. recently reported two different affinity states concerning Y2R binding properties. […].

[3] = target: T3, human neuropeptide Y2 receptor (hY2R); assay: cAMP reporter gene assay, HEK293-hY2R; type: cell-based; parameters: expressed in transfected cells; host or cells: HEK293 (transient transfection, pEYFP-N1 vector)
Method: as §1

[4] = tested on: HEK293-HA-hY2R-eYFP cells; assay: Intracellular fate of TAMRA-NPY (live cell microscopy, lysosomal stain, EEA1 immunostaining); type: cell-based, human
Method: HEK293-HA-hY2R-eYFP cells were seeded on poly-D-lysine coated coverslips (500.000 /well). […] Gradually preparation of all samples was performed in 10 min intervals of 2% paraformaldehyde (PFA)/PBS on ice, 2% PFA/PBS at RT and finally 4% PFA/PBS at RT. Samples were blocked and permeabilized with 10% BSA/0.1% TritonX-100/PBS for 1 h at RT. Incubation with anti-EEA1 (Santa Cruz, sc-33,585) (1:100) in 1% BSA/0.01% TritonX-100/PBS occurred overnight at 4 °C. The next day, samples were treated with anti-rabbit-AF350 (InvitrogenTM) (1:400) in 1% BSA/0.01% TritonX- 100/PBS for 2 h at RT and mounted with Fluoromount-G®.

[5] = target: T3, human neuropeptide Y2 receptor (hY2R); assay: TAMRA-NPY uptake in second stimulation, live cell microscopy (HEK293-HA-Y2R-eYFP); type: cell-based; parameters: expressed in transfected cells; host or cells: HEK293 (transient transfection, pEYFP-N1 vector); details: n ≥ 3
Method: HEK293 or HEK293-HA-Y2R-eYFP were re-seeded (150.00/well) into sterile poly-D-lysine covered μ-slide 8 wells (Ibidi) and grown in a humidified atmosphere at 37 °C and 5% CO2. For transfection, cells were cultured up to 70–80% confluency and subsequently transfected with 1.0 μg total DNA using Lipofectamine® 2000 transfection reagent (Invitrogen) according to the manufacturer’s protocol. For single transfection in empty HEK293 cells 1.0 μg of HA-Y2R-eYFP-N1 plasmid DNA was used. At the experimental day cells were starved in Opti-MEM® reduced serum medium (Gibco®) containing Hoechst33342 (Sigma) for 30 min at 37 °C. LysoTracker®Blue with a final concentration of 1 μM was used for visualization of the lysosomes. […] For recycling studies, cells were washed twice with acidic wash buffer (50 mM glycine, 100 mM NaCl, pH 3.0) and neutralized once with Hank’s balanced salt solution (HBSS; PAA), followed by a recovery period for 60 min in ligand-free media supplemented with 100 μg/ml cycloheximide (CHX; Merck/Calbiochem®) and with or without 20 mM NH4Cl as an expression inhibitor and recycling inhibitor respectively. […] All microscopy images were obtained using the AxioObserver.Z1 microscope equipped with an ApoTome imaging system (Zeiss, Jena). Within one experimental setup, all images were taken using a fixed exposure time for the single fluorescence channels.
Microscopy pictures were processed with the standard software Axio vision 4.8 and exported as an 8 Bit TIFF file (Tagged Image File Format). The open access software Image J was applied for the analysis of the pictures. For determination of mean cell surface fluorescence (MCSF) ten nonadjacent cells per image were measured using the segmented line function. Calculation of the relative TAMRA fluorescence, the Raw Intensity Density was measured under distinct conditions. The particular background fluorescence of each image was subtracted after every evaluation. Since this program uses the single gray levels for evaluation, the calculated values were evaluated retroactively as relative fluorescence intensity and analyzed with the statistical program GraphPad Prism.

hY4R = assay: Ca^2+-flux assay, HEK293 co-transfected hY2R/hY4R, PP to address Y4R; type: cell-based, human; details: 1 μM NPY first, acidic wash, 60 min recovery; Fig. S3B; n≥2
Method: as §2

[6] = tested on: melanocortin 1 receptor (MCR1); assay: cAMP assay, HEK293 co-transfected hY2R/melanocortin 1 receptor; type: cell-based; details: PTX present; first stimulation 1 μM NPY
Method: HEK293 cells were grown in 25 cm^2 culture flask up to 70–80% confluence in a humidified atmosphere at 37 °C and 5% CO2. Co-transfection of 3000 ng pGL4.29[luc2P/CRE/Hygro] (Promega) plasmid and 3000 ng plasmid encoding for the respective receptor was performed using Metafectene® Pro (Biontex Laboratories GmbH) according to the manufacturer’s protocol. One-day post-transfection cells were seeded into white poly-D-lysine covert 96-well plates (Greiner Bio-one) and incubated overnight at 37 °C. For pertussis toxin experiments, medium was supplied with certain concentration (100 ng/ml, 250 ng/ml, 500 ng/ml) of pertussis toxin (Sigma). Two-day post-transfection cAMP experiments were performed with the help of ONE-Glo substrate (Promega), allowing luminescence measurement with the Tecan Infinite M200. […] For recycling, cells were incubated for 60 min with DMEM supplemented with 100 μg/ml CHX (Merck/Calbiochem®). […] As a positive control only 5 μM forskolin were added to the wells. After incubation, medium was exchanged by 30 μl fresh DMEM (RT). 30 μl ONE-Glo substrate was added and after 5 min of incubation the cAMP level was measured by detecting the luminescence. For co-transfection experiments the transfection of two receptors simultaneously and pGL4.29[luc2P/CRE/Hygro] plasmid were performed in a ratio 1:1:1, keeping the total amount of 6000 ng. […]

HEK293-hY2R cells = assay: Cell toxicity by microscopy (cell morphology); type: cell-based, human; details: PTX 250 ng/ml

Molecule: CN(C)CCCn1cc(C2=C(c3c[nH]c4ccccc34)C(=O)NC2=O)c2ccccc21 [Bisindolylmaleimide I]
- effect of PKC inhibitor on adenylyl cyclase inhibition (adenylyl cyclase): abolished inhibitory effect of adenylyl cyclases and Y2R downstream signaling

Molecule: Nc1nc2c(ncn2[C@@H]2O[C@H](COP(=O)(O)OP(=O)(O)OP(O)(O)=S)[C@@H](O)[C@H]2O)c(=O)[nH]1 [GTPγS, Guanosine 5′-O-[gamma-thio] triphosphate]
- effect of GTPγS on total binding [2]: loss in total binding

Molecule: TAMRA-NPY: fluorescent NPY derivative, 5-carboxytetramethylrhodamine (TAMRA)-NPY
- localisation after 60 min recycling period ([4]; 100 nM TAMRA-NPY, lysosomal marker LysoTracker Blue): degradation in lysosomes; also recorded: co-localized with the lysosomal marker
- localisation in early endosomes ([4]; EEA1 immunostaining): intracellular accumulation of TAMRA-NPY in early and sorting endosomes
- co-internalization with receptor ([4]; TAMRA-NPY 60 min, 37 °C): Co-internalization of the ligand-receptor-complex was observed
- TAMRA-NPY internalization in second stimulation, comparison 0 RE vs 60 RE ± NH4Cl ([5]; 1 μM NPY first, then 100 nM TAMRA-NPY 60 min): no difference in TAMRA internalization
- TAMRA-NPY uptake, 0 RE ([5]; 1 μM NPY, acidic wash, direct second stimulation 100 nM TAMRA-NPY 60 min, 37 °C, control = 100%): 45 ± 5%
- TAMRA-NPY uptake, 60 RE ([5]; 1 μM NPY, wash, 60 min recovery with CHX, then 100 nM TAMRA-NPY 60 min, control = 100%): 49 ± 4%
- TAMRA-NPY uptake, 60 RE + NH4Cl ([5]; as 60 RE with 20 mM NH4Cl during recovery, control = 100%): 48 ± 46%

Molecule: pertussis toxin [PTX]
- effect on inhibitory effect of Y2R (MCR1/Y2R cells) [6]: completely abolished; also recorded: abolishing the slight inhibitory effect
- cell toxicity (cell morphology) (HEK293-hY2R cells): no differences in cell morphology were observed
- effect on maximal forskolin-induced cAMP response after NPY ([3]; PTX 250 ng/ml, treatment of cells with NPY first): AC-activity is rescued; also recorded: clearly rescued the maximal cAMP response; also recorded: adenylyl cyclase was still activatable by forskolin
- effect of varying PTX concentrations on AC-activity ([3]; PTX 100, 250, 500 ng/ml, compared to control curve (Fig. 3f)): caused inhibition of AC-activity compared to control curve

Now from value to molecule, other results behind:

- Emax (hY2R; HEK293, second stimulation after 1 μM F^7,P^34-NPY and 60 min recovery, Ahx^5–24-NPY control curve = 100%): 74%
Molecule: CC[C@H](C)[C@H](NC(=O)[C@H](Cc1ccc(O)cc1)NC(=O)[C@H](Cc1c[nH]cn1)NC(=O)[C@H](CCCNC(=N)N)NC(=O)CCCCCNC(=O)[C@H](CCCCN)NC(=O)[C@H](CO)NC(=O)[C@@H]1CCCN1C(=O)[C@@H](N)Cc1ccc(O)cc1)C(=O)N[C@@H](CC(N)=O)C(=O)N[C@@H](CC(C)C)C(=O)N[C@H](C(=O)N[C@H](C(=O)N[C@@H](CCCNC(=N)N)C(=O)N[C@@H](CCC(N)=O)C(=O)N[C@@H](CCCNC(=N)N)C(=O)N[C@@H](Cc1ccc(O)cc1)C(N)=O)[C@@H](C)O)[C@@H](C)CC [Ahx^5–24-NPY] (H-YPSK[Ahx]RHYINLITRQRY-NH2)

- EC50 (hY2R; Y1R/Y2R co-transfected HEK293, no first stimulation): 14 nM
- EC50 (hY2R; second stimulation after 1 μM F^7,P^34-NPY and 60 min recovery): 28 nM
- EC50 ([1]; no first stimulation, SH-SY5Y + Gqi, n ≥ 3): 41.9 nM
Molecule: CC[C@H](C)[C@H](NC(=O)[C@H](Cc1ccc(O)cc1)NC(=O)[C@H](Cc1cnc[nH]1)NC(=O)[C@H](CCCNC(=N)N)NC(=O)CCCCCNC(=O)[C@H](CCCCN)NC(=O)[C@H](CO)NC(=O)[C@@H]1CCCN1C(=O)[C@@H](N)Cc1ccc(O)cc1)C(=O)N[C@@H](CC(N)=O)C(=O)N[C@@H](CC(C)C)C(=O)N[C@H](C(=O)N[C@H](C(=O)N[C@@H](CCCNC(=N)N)C(=O)N[C@@H](CCC(N)=O)C(=O)N[C@@H](CCCNC(=N)N)C(=O)N[C@@H](Cc1ccc(O)cc1)C(N)=O)[C@@H](C)O)[C@@H](C)CC [Ahx^5–24-NPY] (H-YPSK[Ahx]RHYINLITRQRY-NH2)

- increase of baseline intracellular cAMP by forskolin ([3]; 5 μM forskolin, Y2R-expressing HEK293, without NPY): ~ 10 fold
Molecule: C=C[C@@]1(C)CC(=O)[C@]2(O)[C@@]3(C)[C@@H](O)CCC(C)(C)[C@@H]3[C@H](O)[C@H](OC(C)=O)[C@@]2(C)O1 [forskolin]

- Ca^2+ activity in SH-SY5Y ([1]; SH-SY5Y, endogenous background, n≥3): no activity
Molecule: pancreatic polypeptide [PP]
- Ca^2+ response of PP after first stimulation with NPY (hY4R): obvious loss in activity, since no Ca^2+response was measured
